For one data set, the system named is S. aureus (ATCC 29213). The class given is cell-based, Staphylococcus aureus. The procedure: (§1) The minimum inhibitory concentrations (MIC) of AvBDs were determined according to the guidelines of the Clinical and Laboratory Standards Institute (CLSI). The Muller Hinton II broth used in standard MIC assays contained 20–25 mg/L of calcium and 10–12.5 mg/L of magnesium. Modified MICs of AvBDs were also determined under a low-salt and low-nutrient condition by using 100× diluted Muller Hinton II broth containing 0.2 mg/L of calcium, 0.1 mg/L magnesium and 5 mM (292 mg/L) NaCl. MIC obtained under the low-salt and low-nutrient condition was referred to as MIC-ls. AvBD peptides were two-fold serially diluted (2 to 256 μg/ml) in a 96-well microtiter plate. An equal volume (μl) of bacterial suspension was added to each well of the plate. The final bacterial concentration in the wells was 5 × 10^5 CFU/ml. […] To complement MIC-ls assays, the minimum bactericidal concentrations (MBC) were evaluated by sub-culturing the contents of the first two clear wells obtained in the MIC-ls assay onto LB agar plates. All assays were conducted in triplicate. The lowest peptide concentration inhibiting more than 99% of bacterial growth was defined as MBC-ls. AvBD analogues were regarded as bactericidal if the MBC was no more than four times the MIC [29].

Data set [1] deals with P. aeruginosa (ATCC 27853). Format: cell-based, Pseudomonas aeruginosa. How it is done: as §1
Data set [2] deals with Pseudomonas aeruginosa (ATCC 27853). Format: cell-based. As to conditions: ATCC 27853, 2 h. How it is done:
(§2) Escherichia coli (ATCC 25922), Pseudomonas aeruginosa (ATCC 27853), Salmonella enteric serovar Typhimurium (ATCC 14028) and Staphylococcus aureus (ATCC 29213) were used to assess the antimicrobial activity of AvBD analogues. All bacterial strains were grown on Luria-Bertani (LB) agar plates or Trypticase Soy Agar with 5% Sheep Blood (TSA, Thermo Fisher Scientific) plates at 37 °C. Antimicrobial activity was determined by a colony counting assay. In brief, bacteria were resuspended in 100-fold diluted Mueller Hinton II broth with 5 mM NaCl (minimal growth medium) to obtain a final bacterial concentration of 2 × 10^5 CFU/ml. Twenty-five microliters of bacterial suspension and 25 μl of AvBD analogue solution were mixed in the wells of a 96-well polypropylene microtiter plate (Nunc™, Thermo Fisher Scientific). The final peptide concentrations were 2, 4, 8, 16, 32, 64 and 128 μg/ml. The minimal growth medium without AvBD peptide was included as a negative control. The bacterial-peptide mixtures were incubated at 37 °C for 2 h, ten-fold serially diluted and plated on LB agar plates. The numbers of bacteria colonies were enumerated after 16 h of incubation at 37 °C. Antimicrobial activity was expressed as percent of killing using the following formula: (CFUcontrol - CFUtreated) / CFUcontrol × 100%. To assess the resistance of AvBD analogues to sodium chloride (NaCl), antimicrobial assays were carried out in the presence of 5 mM, 50 mM, 100 mM or 150 mM NaCl. All assays were performed in triplicate.

The subject of data set [3] is Escherichia coli (ATCC 25922). Format: cell-based. As to conditions: ATCC 25922, 2 h, 16 μg/ml. The procedure:
as §2

Data set [4] deals with Salmonella enteric serovar Typhimurium (ATCC 14028). The class given is cell-based. To be noted: ATCC 14028, 2 h. How it is done:
as §2

For data set [5], the system named is Staphylococcus aureus (ATCC 29213). The class given is cell-based. To be noted: ATCC 29213, 2 h. The procedure:
as §2

For data set [6], the system named is S. Typhimurium (ATCC 14028). The class given is cell-based, Salmonella enteric serovar Typhimurium. How it is done:
as §1

A further data set has as its system E. coli (ATCC 25922). Format: cell-based, Escherichia coli. How it is done: as §1
A further data set has as its system CHO-K1 cells. The data set is described as follows: MTT cell cytotoxicity assay. Format: cell-based. As to conditions: 256 μg/ml; 4, 12, 24 and 48 hours; Student t-test treated vs untreated; n = 3; Figure S1. The procedure: (§3) Chicken macrophage cell lines MQ-NCSU and HD11 were maintained in RPMI-1640 media supplemented with 10% fetal bovine serum (FBS), 2% chicken serum, 100 U/ml penicillin and 100 μg/ml streptomycin (Sigma-Aldrich) at 37 °C in humidified air with 5% CO2. CHO-K1 cells were cultured in the same media without 2% chicken serum. For CCR2-transfected CHO-K1 cells, the medium was supplemented with 500 μg/ml G418 was added (Sigma-Aldrich). Murine immature dendritic cell line JAWSII (ATCC CRL-11904™) was cultured in Alpha minimum essential medium containing 4 mM L-glutamine, 1 mM sodium pyruvate, 5 ng/ml murine Granulocyte macrophage colony-stimulating factor (GM-CSF), 20% FBS, 100 U/ml penicillin and 100 μg/ml streptomycin at 37 °C in humidified air with 5% CO2. The cell cytotoxicity was determined using the MTT (3-(4, 5-dimethylthiazol-2-yl)-2, 5-diphenyltetrazolium bromide metabolic activity assay according to the manufacturer’s instruction (Thermo Fisher Scientific). Briefly, cells (5 × 10^3 cells/well) were seeded in 96-well tissue culture plates, incubated overnight and treated with AvBDs at concentrations of 4, 16, 64 and 256 μg/ml for 4, 12, 24 and 48 h at 37 °C. After treatment, 20 μl of 12 mM MTT solution was added to each well. The plate was incubated for 4 h and read at 540 nm. Viability was expressed as percentage of viable cells relative to the untreated control. The experiments were performed in triplicate.
Background: Tetrazolium assays rely on reduction of a dye to a coloured formazan, in cell work by metabolically active cells.

For data set [7], the system named is mouse immature dendritic JAWSII cells. The data set is described as follows: Chemotaxis assay, 48-well microchemotaxis chamber. The class given is cell-based. To be noted: peptide 64 μg/ml. How it is done:
Migration of JAWSII and CCR2-CHO-K1 cells in response to AvBD-12 analogues was determined using a 48-well microchemotaxis chamber technique as previously described. Chemotaxis buffer (Minimum Essential Medium containing 0.1% BSA, 100U/ml penicillin, and 100 μg/ml streptomycin) and bacterial peptide N-Formyl-methionyl-leucyl-phenylalanine (fMLF, Sigma-Aldrich) were included as negative and positive controls, respectively. The results were presented as chemotactic index (C.I.). C.I. = number of migrated cells induced by AvBDs / number of migrated cells induced by chemotactic buffer. The assay was repeated five times.

Another data set concerns JAWSII cells. The data set is described as follows: MTT cell cytotoxicity assay. As to conditions: 256 μg/ml; 4, 12, 24 and 48 hours; Student t-test treated vs untreated; n = 3; Figure S1. The class given is cell-based, murine. The procedure:
as §3, with “The experiments were performed in triplicate.” left out

For the next data set, the system named is HD11 cells. Nature of the data set: MTT cell cytotoxicity assay. As to conditions: 256 μg/ml; 4, 12, 24 and 48 hours; Student t-test treated vs untreated; n = 3; Figure S1. The class given is cell-based, chicken. How it is done: as §3
A further data set has as its system MQ-NCSU cells. Nature of the data set: MTT cell cytotoxicity assay. Format: cell-based, chicken. To be noted: 256 μg/ml; 4, 12, 24 and 48 hours; Student t-test treated vs untreated; n = 3; Figure S1. How it is done: as §3
Data set [8] has as its system avian and mammalian cell lines. To be noted: previous findings; cited from earlier work. How it is done:
Data on the highest peptide concentration (256 μg/ml) at various exposure times were presented in Additional file 1: Figure S1. The results were consistent with our previous findings that AvBD-6 and AvBD-12 were non-cytotoxic to avian and mammalian cell lines.

Where [9] appears, read: 100× diluted Muller Hinton II broth, 5 mM NaCl, 5 × 10^5 CFU/ml, 37 °C, 24 h, triplicate.
Where [10] appears, read: CLSI, standard Muller Hinton II broth, 5 × 10^5 CFU/ml, 37 °C, 24 h, triplicate.
Where [11] appears, read: sub-culture of clear MIC-ls wells on LB agar, lowest concentration inhibiting more than 99% of growth, triplicate.

Data on 2 sequences can be found in paper PMC5324278, “Novel synthetic analogues of avian β-defensin-12: the role of charge, hydrophobicity, and disulfide bridges in biological functions” (BMC Microbiology, 2017).

Read-outs that look alike come from different tables or passages of the source. Bridge positions count the residues as written; N and C are the ends. Ends that are not written are not given here. Bounds are passed on as bounds.

As for “GPRSANHKRGLARVGNANPGKYLAKYSFRPVILSSKPLSPTPTKT [AvBD-12A3]”, in the data set with S. aureus (ATCC 29213) (ATCC 29213, 24 h), the “MBC-ls S. aureus (ATCC 29213)” value turned out to be 256 µg/mL, the “MIC S. aureus (ATCC 29213)” value is >256 µg/mL and the “MIC-ls S. aureus (ATCC 29213)” value is 128 µg/mL. For the same sequence, in data set [1] (ATCC 27853, 24 h), the “MBC-ls P. aeruginosa (ATCC 27853)” value was determined as 16 µg/mL, the “MIC P. aeruginosa (ATCC 27853)” value was >256 µg/mL and the “MIC-ls P. aeruginosa (ATCC 27853)” value was determined as 8 µg/mL. Moreover, the “percent of killing of P. aeruginosa” value in data set [2] (16 μg/ml) is listed as 100%. For the same sequence, in [2] (32 μg/ml), the “killing potency against P. aeruginosa retained at 150 mM NaCl” value is recorded as “approximately 80%”. Further, in [3], the “killing potency against E. coli retained at 150 mM NaCl” value is reported as “approximately 80%” and the “percent of killing of E. coli” value came to 100%. For the same sequence, in data set [4] (16 μg/ml), the “percent of killing of S. Typhimurium” value is listed as 93.9%. In addition, the “killing activity against S. Typhimurium retained at 150 mM NaCl” value in data set [4] (32 μg/ml) is recorded as 30-60%. In data set [5] (16 μg/ml), the “percent of killing of S. aureus” value amounted to 91.7%. Besides, in [5] (64 μg/ml), the “killing activity against S. aureus retained at 150 mM NaCl” value is 30-60%. Also, in [6] (ATCC 14028, 24 h), the “MBC-ls S. Typhimurium (ATCC 14028)” value stood at 64 µg/mL, the “MIC S. Typhimurium (ATCC 14028)” value is >256 µg/mL and the “MIC-ls S. Typhimurium (ATCC 14028)” value stood at 16 µg/mL. In the data set with E. coli (ATCC 25922) (ATCC 25922, 24 h), the “MBC-ls E. coli (ATCC 25922)” value came to 16 µg/mL, the “MIC E. coli (ATCC 25922)” value turned out to be 128 µg/mL and the “MIC-ls E. coli (ATCC 25922)” value is 4 µg/mL. For the same sequence, in the data set on CHO-K1 cells, the “metabolic activity (viability relative to untreated control), CHO-K1” value is reported as “No significant difference was found”. The “chemotactic index (C.I.) for JAWSII cells” value in [7] (migrated cells with peptide / with chemotactic buffer, n = 5) is listed as 3.74. For the same sequence, the “chemotactic activity for JAWSII cells, % of wild type” value in data set [7] (relative to AvBD-12) is recorded as 56.6 % of wild type.

As for “SPIHACRYQRGVCIPGPCRWPYYRVGSCGSGLKSCCVRNRWA (disulfide 6-35, 13-28, 18-36) [AvBD-6, avian β-defensin-6, reference compound]”, the “MIC-ls S. aureus (ATCC 29213)” value in the data set on S. aureus (ATCC 29213) (setting [9]) was 256 µg/mL. The “MIC S. aureus (ATCC 29213)” value against S. aureus (ATCC 29213) (setting [10]) was 256 µg/mL. Besides, the “MBC-ls S. aureus (ATCC 29213)” value with S. aureus (ATCC 29213) (setting [11]) is 256 µg/mL. Further, in data set [1] (setting [9]), the “MIC-ls P. aeruginosa (ATCC 27853)” value stood at 64 µg/mL. The “MIC P. aeruginosa (ATCC 27853)” value in [1] (setting [10]) was >256 µg/mL. Besides, the “MBC-ls P. aeruginosa (ATCC 27853)” value in data set [1] (setting [11]) was found to be 128 µg/mL. In addition, the “MIC-ls S. Typhimurium (ATCC 14028)” value in [6] (setting [9]) was found to be 16 µg/mL. Further, the “MIC S. Typhimurium (ATCC 14028)” value in data set [6] (setting [10]) was >256 µg/mL. Further, the “MBC-ls S. Typhimurium (ATCC 14028)” value in data set [6] (setting [11]) stood at 64 µg/mL. The “metabolic activity (viability relative to untreated control), JAWSII” value with JAWSII cells is “No significant difference was found”. Besides, the “MIC-ls E. coli (ATCC 25922)” value in the data set with E. coli (ATCC 25922) (setting [9]) is 4 µg/mL. In the data set with E. coli (ATCC 25922) (setting [10]), the “MIC E. coli (ATCC 25922)” value was found to be 128 µg/mL. In the data set on E. coli (ATCC 25922) (setting [11]), the “MBC-ls E. coli (ATCC 25922)” value worked out at 16 µg/mL. Moreover, in the data set with CHO-K1 cells, the “metabolic activity (viability relative to untreated control), CHO-K1” value is recorded as “No significant difference was found”. Further, the “metabolic activity (viability relative to untreated control), HD11” value in the data set on HD11 cells is “No significant difference was found”. Further, the “metabolic activity (viability relative to untreated control), MQ-NCSU” value in the data set on MQ-NCSU cells is reported as “No significant difference was found”. For the same sequence, in data set [8], the “cytotoxicity to avian and mammalian cell lines” value was “non-cytotoxic”.
